Assay results taken from patent US20200317813A1, “TREATMENT AND DIAGNOSIS OF NON-PROLIFERATIVE DIABETIC RETINOPATHY” (Johann Wolfgang Goethe-Universitat Frankfurt am Main, priority 2016, published 2020).

Legend:
[1] = system: endothelial cell-pericyte co-cultures; assay: Endothelial cell-pericyte co-culture: cadherin expression, lipid rafts, immunoprecipitation; type: cell-based, human; conditions: for N-cadherin expression in cocultured cells: 19,20-EDP/19,20-DHDP 3 μmol/L, VEGF 20 ng/ml; for N-cadherin expression in cocultured cells / association (co-precipitation) of PS1 with N-cadherin and VE-cadherin / association of p120 catenin with N- or VE-cadherin: 24 hours; for lipid raft association and membrane presentation of N-cadherin: endothelial cell-pericyte cocultures; for association (co-precipitation) of PS1 with N-cadherin and VE-cadherin / association of p120 catenin with N- or VE-cadherin: immunoprecipitation from co-cultures
Procedure: Human umbilical vein endothelial cells were cultured on fibronectin coated dishes until confluent. Then pericytes were seeded on top of the endothelial cells (PC:EC=1:5) and cocultured for a further 3 days. […] Cells were then lysed with HEPES buffer: 25 mmol/L HEPES pH 7.4, 150 mmol/L NaCl, complete protease inhibitor cocktail (Roche), and 1% digitonin (Sigma). Following centrifugation at 17,000 g for 10 minutes, supernatants (1 mg of protein) were pre-cleaned with protein A/G agarose (Pierce) for 30 mins. Supernatants were then incubated with anti-VE-cadherin (1:1000, AF1002 R&D systems, Abingdon, UK) or N-cadherin (1:1000, 33-3900 life technologies, CA, USA) antibodies at 4° C. for 2 hours and then treated with protein A/G agarose for a further 2 hours. Samples were washed with lysis buffer and analyzed by SDS-PAGE.
Samples were separated by SDS-PAGE and subjected to Western blotting as described^41. Membranes were blocked in 3% BSA in PBS, incubated with primary and horseradish peroxidase-conjugated secondary antibodies in blocking solution, and detection was performed with a Lumi-Light plus western blotting substrate (Roche).
Lipid rafts were isolated as described with modifications^42. Briefly, cells were harvested by scraping and homogenized at 4° C. in sodium carbonate (0.5 mol/L, pH11) using a glass homogenizer, followed by sonication. Then, equal amounts of protein were adjusted to a final sucrose concentration of 45% (final volume, 4 mL) and transferred to 12 mL ultracentrifuge tubes. A discontinuous sucrose gradient was then formed by sequentially overlaying 4 mL of 35% and 4 ml, of 5% sucrose. Samples were subjected to ultracentrifugation (35,000 rpm, 4° C. for 20 hours) using a Beckman SW 41 rotor (Krefeld, Germany). After centrifugation, twelve 1 mL fractions were collected using a capillary tube connected to a peristaltic pump, and equal volumes of each faction were analyzed by SDS-PAGE using antibodies against flotillin 1 (1:2000, 610820 BD Biosciences, Heidelberg, Germany), VE-cadherin (1:1000, sc-28644 Santa Cruz, Darmstadt, Germany) and N-cadherin (1:1000, 33-3900 lifetechnologies, CA, USA).

[2] = system: retinas from 7 month old wild-type mice; assay: Retinal explants, ex vivo retina whole mount model; type: cell-based, mouse; conditions: ex vivo organ culture, 4 day period, 5 μmol/L
Procedure: Eyes from 7 months old animals were enucleated and immersed in ice-cold HBSS containing penicillin (100 U/mL) and streptomycin (100 μg/mL). Retinas were carefully dissected under stereomicroscope and divided into four quadrants with four deep radial incisions. The explants were transferred onto tissue culture inserts (0.4 μm pore, Millipore; Cork, Ireland) with the retinal ganglion cell side facing up. The inserts were placed into the wells of a 6-well plate. A serum free retinal explant media (Neurobasal A, Invitrogen) supplemented with 2% B27 (Invitrogen), 1% N2 (Invitrogen), L-glutamine (0.8 mmol/L), penicillin (100 U/mL), and streptomycin (100 μg/mL) were added to the bottle of the wells and 3 μL of media was dropped on top of the retina to keep it moist. […] After 4 days, retinas were fixed and processed as described above.

[3] = molecular target: γ-secretase (Homo sapiens, UniProt P49768); conditions: by redistribution of PS1 out of lipid rafts, retina; cited from earlier work
[4] = system: pericytes; assay: N-cadherin internalization assay; type: cell-based, human; conditions: 3 μmol/L, 3 hours (not shown)
Procedure: (§1) VE-cadherin internalization was determined as described^40. Endothelial cells were cultured on culture slides (BD, Heidelberg, Germany) coated with crosslinked gelatin until confluent and starved with 2% FCS overnight. Cells were then incubated with antibody against extracellular domain of human VE-cadherin (clone BV6, ALX-803-305 Enzo Life Sciences, Lörrach, Germany) at 4° C. for 1 hour in MCDB131 with 1% BSA medium. Unbound antibody was removed by rinsing cells with ice-cold MCDB131 medium. […] To block the degradation of internalized VE-cadherin chloroquine (300 μmol/L) was be added to the incubation medium. To assess internalized endogenous VE-cadherin cells were washed with ice-cold acid wash buffer (Hanks buffer, pH=2.7, containing 25 mmol/L glycine and 1% BSA) to assess total VE-cadherin cells were rinsed with ice-cold neutral washing buffer (Hanks buffer with 1% BSA, pH=7.4). Cells were fixed with 4% PFA for 15 minutes at 4° C. and then processed for immunofluorescence. To assess N-cadherin internalization, pericytes were incubated with an antibody against the extracellular domain of human N-cadherin (clone 8C11, 350802 BioLegend, CA. USA) at 4° C. for 1 hour in DMEM containing 1% BSA. […] Samples were imaged with an SP8 confocal microscope (Leica) and internalized particles were quantified using ImageJ (NIH) software.

[5] = system: human endothelial cells; assay: VE-cadherin staining and internalization in cultured endothelial cells; type: cell-based; conditions: 3 hours; for internalization of VE-cadherin: in the presence of t-AUCB (10 μmol/L), pre-labelled antibody and immunoprecipitation
Procedure: Cells were fixed with 4% PFA for 10 min at room temperature. After washing with PBS samples were blocked and permeabilized with 1% BSA, 5% horse serum, 0.5% Triton X-100 at room temperature for 2 hours or at 4° C. overnight before being exposed to primary antibody (4° C., overnight). After extensive washing and exposure to Alexa Fluor-coupled secondary antibody (1:200, 2 hours, room temperature) samples were mounted in fluorescent mounting medium and analyzed with a confocal microscope; Leica SP8 confocal microscope and LASX software (Wetzlar, Germany) or Carl Zeiss LSM-780 and ZEN software (Jena, Germany) as described^6′^32.
as §1, with “immunofluorescence.” for “immunofluorescence. To assess N-cadherin internalization, pericytes were incubated with an antibody against the extracellular domain of human N-cadherin (clone 8C11, 350802 BioLegend, CA. USA) at 4° C. for 1 hour in DMEM containing 1% BSA.”
Confluent cultures of human endothelial cells were incubated with antibodies recognizing the extracellular domains of human VE-cadherin (BV6 antibody) at 4° C. […] Samples were washed with lysis buffer and analyzed by SDS-PAGE.

[6] = system: murine brain microvascular endothelial cells; assay: Transendothelial electrical resistance (TEER); type: cell-based, mouse; conditions: 19,20-EDP/19,20-DHDP 3 μmol/L, VEGF 20 ng/ml, 24 hours
Procedure: Impedance measurements were performed using isolated murine brain microvascular endothelial cells with a cellZscope device (nano-Analytics) as described^38. […] Measurements were performed four times in quadruplicate with endothelial cells from four different cell preparations.

[7] = system: pericytes; assay: In vitro pericyte migration on endothelial cell monolayer; type: cell-based, human; conditions: 3 μmol/L
Procedure: Human umbilical vein endothelial cells were isolated and cultured as described^37, seeded on μ-slides (ibidi, Martinsried, Germany) and grown to confluence. Pericytes were labeled with cell tracker green (Invitrogen) and added to the endothelial cell monolayer. Cells were treated with either solvent (0.03% DMSO), 19,20-EDP (3 μmol/L), 19,20-DHDP (3 μmol/L). Cells were incubated in an IncuCyte imaging system (Essen Bioscience) that took photographs automatically every 15 minutes for 48 hours. Pericyte movement on top of the endothelial cell monolayer were tracked manually and analyzed with Image J (NIH, Bethesda, Md., USA). In some experiments pericytes were treated with small interfering RNA directed against N-cadherin (sc-29403, Santa Cruz). Transfection was performed with lipofectamine 2000 (Invitrogen) following the manufacturer's instructions and a scrambled control siRNA was used as control.

[8] = system: retinas from wild-type and Ins2Akita mice; assay: Retinal growth factor and Notch gene expression in mice treated with sEH inhibitor; type: in vivo, mouse
Procedure: Total RNA from retinas was extracted using an RNeasy kit (QIAGEN, Hilden, Germany), and equal amounts (1 μg) of total RNA was reverse transcribed (Superscript III; Invitrogen). Gene expression levels were detected using SYBR Green (Absolute QPCR SYBR Green Mix; Thermo Fisher Scientifc). The relative expression levels of the different genes studied was calculated using the 2^−ΔΔCt method with the 18S RNA as a reference.

[9] = system: Ins2Akita mice; conditions: mouse, in vivo
[10] = molecular target: T1, sEH (Homo sapiens, UniProt P34913); conditions: cited from earlier work
T1 sequence (P34913 1-555): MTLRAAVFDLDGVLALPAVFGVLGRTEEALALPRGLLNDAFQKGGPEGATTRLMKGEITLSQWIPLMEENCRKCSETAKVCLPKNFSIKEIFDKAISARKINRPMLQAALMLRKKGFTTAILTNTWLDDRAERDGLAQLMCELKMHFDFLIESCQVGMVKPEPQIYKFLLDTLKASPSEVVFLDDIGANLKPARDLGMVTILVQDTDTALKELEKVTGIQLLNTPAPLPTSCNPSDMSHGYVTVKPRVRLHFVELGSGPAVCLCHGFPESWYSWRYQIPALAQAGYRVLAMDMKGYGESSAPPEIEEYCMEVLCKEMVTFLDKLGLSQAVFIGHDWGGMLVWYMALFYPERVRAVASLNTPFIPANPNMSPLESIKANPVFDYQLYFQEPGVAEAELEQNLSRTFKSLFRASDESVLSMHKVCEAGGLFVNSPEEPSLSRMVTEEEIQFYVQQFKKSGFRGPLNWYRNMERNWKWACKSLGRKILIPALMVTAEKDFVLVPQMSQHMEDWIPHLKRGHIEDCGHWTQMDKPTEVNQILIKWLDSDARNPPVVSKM

Compound | N-cadherin expression in cocultured cells [1] | lipid raft association and membrane presentation of N-cadherin [1] | association (co-precipitation) of PS1 with N-cadherin and VE-cadherin [1] | association of p120 catenin with N- or VE-cadherin [1] | capillary pericyte loss and pericyte migration [2] | N-cadherin internalization [4] | internalization of VE-cadherin [5] | transendothelial electrical resistance [6] | further results
19,20-dihydroxydocosapentaenoic acid [19,20-DHDP] | decreased | disrupt | attenuated | did not influence | induced | induce | detected | decreased | γ-secretase activity [3]: inhibit; VE-cadherin staining of confluent endothelial cells ([5]; 3 μmol/L): discontinuous; pericyte motility [7]: increase
O=C(NC12CC3CC(CC(C3)C1)C2)N[C@H]1CC[C@H](Oc2ccc(C(=O)O)cc2)CC1 (relative stereo) [t-AUCB, trans-4-[4-(3-adamantan-1-ylureido)cyclohexyloxy]-benzoic acid] | – | – | – | – | – | – | – | – | Hey1 and Jagged 1 expression [8]: tend to increase; PDFG receptor β levels in retinas [8]: failed to significantly alter; PDGFB expression in retinas [8]: increased; N-cadherin expression in retinas [9]: largely maintained; co-localization of VE-cadherin and N-cadherin with PS1 in retinas [9]: maintained; loss of desmin positive cells in retinas [9]: prevented
CCC1OC1CC=CCC=CCC=CCC=CCC=CCCC(=O)O (stereo not shown) [19,20-EDP, 19,20 epoxydocosapentaenoic acid] | without effect | not | without effect | – | largely ineffective | not | not | – | –
CCCCCCCCCCCCNC(=O)NC12CC3CC(CC(C3)C1)C2 [ADU, N-Adamantyl-N′-dodecyl urea] | – | – | – | – | – | – | – | – | activity on sEH [10]: particularly high activity
VEGF | without effect | – | attenuated | decreased recovery | – | – | – | alterations induced by 19,20-DHDP were however less pronounced than those elicited by vascular endothelial cell growth factor | –
